Results from US11267780B2, “Compound for modulating DDAH and ADMA levels, as well as methods of using thereof to treat disease” (THE TRUSTEES OF INDIANA UNIVERITY, priority 2018, dated 2022).
pEC50: −log10 of the molar value. “Also recorded” adds a separate entry of the source.

How the values were obtained:
[1] = test system: DDAH promoter; experiment: DDAH promoter activation assay (DDAH promoter-Luciferase reporter); assay type: cell-based
Procedure: DDAH promoter activation assay. Activation of DDAH promoter was determined using a DDAH promoter-Luciferase reporter assay. DDAH promoter DNA sequence was cloned in pGL4.10 luciferase reporter plasmid. For transfection of HEK-293 cells, the cells were seeded in six well plates at a density of 2.0×10^5 cells/well. After 24 hours, the cells were transfected with the DDAH promoter plasmid by adding 200 ng DNA/well and incubated for 24 hours. Transfected cells were then transferred to 96 well plates at 50,000 cells/well and incubated overnight with various concentrations of the test compounds. The medium was removed from the wells and 20 μL of lysis reagent was added. After 5 min, 100 μL Luciferase assay reagent was added, and luminescence was measured.

[2] = test system: monocrotalin induced PAH; experiment: Rat model of monocrotalin induced PAH; assay type: in vivo; conditions: 1 mg/kg s.c. once a day
Procedure: A rat model of monocrotalin induced PAH was used for in vivo studies. Male Sprague Dawley rats about 250 g were purchased from Charles river. PAH was induced by a single s.c. injection of 60 mg/kg monocrotalin. VN-317 (1 mg/kg) or vehicle was administered subcutaneously on day one and once a day thereafter. After 6 weeks, the disease development was determined by pulmonary artery (PA) pressure measurements, echocardiography, and histology. PA pressure was determined by right heart catheterization using a 1.4-F micromanometer-tipped Millar catheter with fluoroscopy guidance. Transthoracic echocardiography was performed using a GE vivid i with 5.0-13.0 MHz il2L-RS linear array transducer. Pulmonary artery acceleration time (PAAT) was measured using pulse-wave Doppler echocardiography with the sample volume centrally positioned in the PA distal to the pulmonary valve. M-mode was applied to measure the right ventricular cavity thickness during end diastole using the parasternal long-axis view obtained from the right side of the rat. Tissue and blood samples were collected at termination. Tissues were fixed in 10% formalin, embedded in paraffin, and then processed for histomorphometry. Macrophage in lung tissues were determined by immunostaining using CD68 antibodies.

[3] = test system: DDAH-1 protein; experiment: DDAH western blot analysis in human pulmonary artery smooth muscle cells; assay type: cell-based; conditions: 24 hours
Procedure: (§1) DDAH and Collagen western blot analysis. Human umbilical vein endothelial cells (HUVEC), retinal endothelial cells and vascular smooth muscle cells from Lonza were transferred to 6 well plates at a density of 4.0×10^5/well and incubated overnight. Various concentrations of test compounds were then added. After 24 hours, medium was removed, the cells were scraped and collected in 50 μL of lysis buffer containing 50 mM Tris-HCl, 0.25% deoxycholic acid, 1% NP-40, 1 mM EDTA and protease inhibitor cocktails. Cell extract was subjected to SDS polyacrylamide gel electrophoresis. Proteins from the 12% polyacrylamide gels were transferred to PVDF membranes for westerns and blotted with DDAH or collagen 1 antibodies from Abcam.
(§2) Expression of DDAH was determined in human pulmonary artery smooth muscle cells (FIG. 1A) and human retinal microvascular endothelial cells (FIG. 1B). Cells were treated with different concentrations of VN-317. After 24 hours, cells were extracted in lysis buffer as described under methods. Extracts were subjected to SDS gel electrophoresis. Proteins from SDS gel were transferred to PVDF membrane and for western blotting using DDAH-1 antibodies. […] Therese data illustrate differential modulation of DDAH by VN-317 in different cell types.

[4] = test system: DDAH-1 protein; experiment: DDAH western blot analysis in human retinal microvascular endothelial cells; assay type: cell-based; conditions: 24 hours
Procedure: as §1, §2

[5] = test system: collagen 1; experiment: Collagen western blot analysis in myofibroblast like smooth muscle cells; assay type: cell-based; conditions: in response to TGF-beta, 48 hours
Procedure: as §1
Cells were treated with VN-317 in the presence or absence of TGF-beta. After 48 hours, cells were extracted in 50 ul lysis buffer and cell extract was subjected to SDS gel electrophoresis. Proteins from the 12% polyacrylamide gels were transferred to PVDF membranes for westerns and blotted collagen 1a antibodies from Abcam.

[6] = Table 1, stilbene-based ADMA-modulating agents
[7] = Table 2, ADMA-lowering agents including heterocycles
[8] = after 6 weeks, echocardiography
[9] = Table 3, other ADMA-lowering agents

O=C(O)c1cccc(/C=C/c2ccc(OCCN3CCOCC3)cc2)c1 [VN-363, (E)-3-(4-(2-morpholinoethoxy)styryl)benzoic acid]
pEC50 [1, 6]: 9.01

O=C(O)c1cccc(/C=C\c2ccccc2)c1 [VN-339, (Z)-3-styrylbenzoic acid]
EC50 nM [1, 6]: Ambiguous

O=C(O)c1cccc(/C=C/c2ccsc2)c1 [VN-369, (E)-3-(2-(thiophen-3-yl)vinyl)benzoic acid]
pEC50 [1, 7]: 8.91

O=C(O)c1cccc(/C=C/c2cccs2)c1 [VN-368, (E)-3-(2-(thiophen-2-yl)vinyl)benzoic acid]
pEC50 [1, 7]: 9.10

O=C(O)c1cccc(/C=C/c2cscn2)c1 [VN-366, (E)-3-(2-(thiazol-4-yl)vinyl)benzoic acid]
pEC50 [1, 7]: 5.86

O=C(O)c1cccc(/C=C\c2cccs2)c1 [VN-373, (Z)-3-(2-(thiophen-2-yl)vinyl)benzoic acid]
pEC50 [1, 7]: 9.12

Cc1cc(O)ccc1/C=C/c1cccc(C(=O)O)c1 [VN-317, (E)-3-(4-hydroxy-2-methylstyryl)benzoic acid]
inflammation in the lung (CD68 immuno-staining) ([2]; after 6 weeks): dramatic reduction; also recorded: reduced | pulmonary artery medial thickening (histology) ([2]; after 6 weeks): open artery; also recorded: reduced | pulmonary artery pressure (PAP) ([2]; after 6 weeks): significantly reduced | vascular disease in the lung ([2]; after 6 weeks): reduced | pulmonary artery blood acceleration time (PAAT) [2, 8]: increased | right ventricle cavity thickness [2, 8]: reduced | body weight loss ([2]; over 6 weeks): prevented | mortality ([2]; until week 6, N=6): none and reduced | DDAH-1 protein expression (western blot) [3]: enhancing; also recorded: enhanced | DDAH-1 protein expression (western blot) [4]: reducing; also recorded: reduced | pEC50 [1, 6]: 8.15 | collagen production (western blot) [5]: reduced

O=C(O)c1cccc(/C=C/c2ccccc2)c1 [VN-330, (E)-3-styrylbenzoic acid]
pEC50 [1, 6]: 7.28

O=C(O)c1cccc(/C=C\c2ccc(F)cc2)c1 [VN-372, (Z)-3-(4-fluorostyryl)benzoic acid]
pEC50 [1, 6]: 7.98

O=C(O)c1cc(/C=C/c2ccccc2)ccc1O [VN-359, (E)-2-hydroxy-5-styrylbenzoic acid]
pEC50 [1, 6]: 9.80

O=C(O)c1cccc(/C=C\c2cccc(OCCN3CCOCC3)c2)c1 [VN-388, (Z)-3-(3-(2-morpholinoethoxy)styryl)benzoic acid]
EC50 nM [1, 6]: Ambiguous

Cc1ccccc1/C=C/c1cccc(C(=O)O)c1 [VN-329, (E)-3-(2-methylstyryl)benzoic acid]
pEC50 [1, 6]: 8.06

O=C(O)c1cccc([C@H]2C[C@@H]2c2ccccc2)c1 [VN-347, 3-((1S,2S)-2-phenylcyclopropyl)benzoic acid]
pEC50 [1, 9]: 8.48

O=C(O)c1cccc([C@@H]2C[C@@H]2c2ccccc2)c1 [VN-376, 3-((1R,2S)-2-phenylcyclopropyl)benzoic acid]
pEC50 [1, 9]: 6.28

O=C(O)c1cccc(/C=C/c2cncs2)c1 [VN-367, (E)-3-(2-(thiazol-5-yl)vinyl)benzoic acid]
pEC50 [1, 7]: 5.98

O=C(O)c1cccc(/C=C/c2nccs2)c1 [VN-365, (E)-3-(2-(thiazol-2-yl)vinyl)benzoic acid]
pEC50 [1, 7]: 6.74

O=C(O)c1cccc(/C=C/c2ccncc2)c1 [VN-355, (E)-3-(2-(pyridin-4-yl)vinyl)benzoic acid]
pEC50 [1, 7]: 6.19

COc1ccc(/C=C/c2cccc(C(=O)O)c2)c(C)c1 [VN-333, (E)-3-(4-methoxy-2-methylstyryl)benzoic acid]
pEC50 [1, 6]: 8.74

O=C(O)c1cccc(/C=C/c2cccc(OCCN3CCOCC3)c2)c1 [VN-362, (E)-3-(3-(2-morpholinoethoxy)styryl)benzoic acid]
pEC50 [1, 6]: 8.89

O=C(O)c1cccc(/C=C/c2cccnc2)c1 [VN-353, (E)-3-(2-(pyridin-3-yl)vinyl)benzoic acid]
pEC50 [1, 7]: 7.24

O=C(O)c1cccc(/C=C/c2cccnc2)c1 [VN-354, (E)-3-(2-(pyridin-3-yl)vinyl)benzoic acid]
pEC50 [1, 7]: 6.17

O=C(O)c1cccc(/C=C\c2cncs2)c1 [VN-386, (Z)-3-(2-(thiazol-5-yl)vinyl)benzoic acid]
pEC50 [1, 7]: 8.55

O=C(O)c1cccc(/C=C/c2ccc(F)cc2)c1 [VN-390, (E)-3-(4-fluorostyryl)benzoic acid]
pEC50 [1, 6]: 8.47

O=C(O)c1cccc(/C=C/c2cocn2)c1 [VN-351, (E)-3-(2-(oxazol-4-yl)vinyl)benzoic acid]
pEC50 [1, 7]: 7.06

O=C(O)c1cccc(/C=C\c2ccc(Cl)cc2)c1 [VN-379, (Z)-3-(4-chlorostyryl)benzoic acid]
pEC50 [1, 6]: 8.41

COc1ccc(/C=C\c2cccc(C(=O)O)c2)c(C)c1 [VN-342, (Z)-3-(4-methoxy-2-methylstyryl)benzoic acid]
pEC50 [1, 6]: 7.09

O=C(O)c1cccc(/C=C/c2ccc(Cl)cc2)c1 [VN-371, (E)-3-(4-chlorostyryl)benzoic acid]
pEC50 [1, 6]: 8.85

O=C(O)c1cccc(/C=C\c2ccncc2)c1 [VN-387, (Z)-3-(2-(pyridin-4-yl)vinyl)benzoic acid]
pEC50 [1, 7]: 8.77

O=C(O)c1cccc(/C=C/c2ccc(O)cc2)c1 [VN-328, (E)-3-(4-hydroxystyryl)benzoic acid]
pEC50 [1, 6]: 7.73

O=C(O)c1cccc(/C=C\c2cocn2)c1 [VN-380, (Z)-3-(2-(oxazol-4-yl)vinyl)benzoic acid]
pEC50 [1, 7]: 9.77

O=C(O)c1cccc(/C=C\c2cccnc2)c1 [VN-381, (Z)-3-(2-(pyridin-3-yl)vinyl)benzoic acid]
pEC50 [1, 7]: 9.14
